Data: patent publication US10174024B2, “5H-pyrido[3,2-B]indole compounds as anticancer agents” (BRISTOL-MYERS SQUIBB COMPANY, priority 2015, dated 2019)
Read-outs that look alike come from different tables or passages of the source.

Biological target: BRD4 (Homo sapiens, UniProt O60885)
Experiment: Time Resolved Fluorescence Resonance Energy Transfer (TR-FRET) binding assay, FRET BRD4
Conditions: one of the FRET assays described (BRD4 bromodomain construct not specified)

Compound | IC50 (read-out: FRET BRD4 IC50) [nM] | IC50 (FRET BRD4 IC50 (nM)) [nM]
[2H]C([2H])([2H])c1nnn(C)c1-c1cnc2c3ccc(C4(O)CCOCC4)c(F)c3n([C@H](c3ccccc3)C3CCOCC3)c2c1 [Example 62, 4-{6-Fluoro-3-[4-(^2H3)methyl-1-methyl-1H-1,2,3-triazol-5-yl]-5-[(S)-oxan-4-yl(phenyl)methyl]-5H-pyrido[3,2-b]indol-7-yl}oxan-4-ol] | < 1 | –
[2H]C([2H])([2H])c1nnn(C)c1-c1cnc2c3ccc(C4(O)CCN(C)CC4)c(F)c3n([C@H](c3ccccc3)C3CCOCC3)c2c1 [Example 54, 4-{6-Fluoro-3-[4-(^2H3)methyl-1-methyl-1H-1,2,3-triazol-5-yl]-5-[(S)-oxan-4-yl(phenyl)methyl]-5H-pyrido[3,2-b]indol-7-yl}-1-methylpiperidin-4-ol] | – | < 1
[2H]C([2H])([2H])c1nnn(C)c1-c1cnc2c3ccc(N4CCCS4(=O)=O)c(F)c3n([C@H](c3ncccc3F)C3CCOCC3)c2c1 [Example 61, 2-{6-Fluoro-5-[(S)-(3-fluoropyridin-2-yl)(oxan-4-yl)methyl]-3-[4-(^2H3)methyl-1-methyl-1H-1,2,3-triazol-5-yl]-5H-pyrido[3,2-b]indol-7-yl}-1λ^6,2-thiazolidine-1,1-dione] | < 5 | –
Cc1nnn(C)c1-c1cnc2c3ccc(-c4ccon4)cc3n([C@H](c3ccccc3)C3CCOCC3)c2c1 [Example 2, 1,4-Dimethyl-5-{5-[(S)-oxan-4-yl(phenyl)methyl]-7-(1,2-oxazol-3-yl)-5H-pyrido[3,2-b]indol-3-yl}-1H-1,2,3-triazole] | < 5 | –
[2H]C([2H])([2H])c1nnn(C)c1-c1ccc2c3ncc(-c4c(C([2H])([2H])[2H])nnn4C)cc3n(C(c3ncccc3F)C3CCOCC3)c2c1 (stereo not drawn) [Example 27, 2-({3,7-Bis[4-(^2H3)methyl-1-methyl-1H-1,2,3-triazol-5-yl]-5H-pyrido[3,2-b]indol-5-yl}(oxan-4-yl)methyl)-3-fluoropyridine] | < 5 | –
Cc1nnn(C)c1-c1cnc2c3ccc(N4CCC(C(F)(F)F)CC4)cc3n(C(c3ccccc3)C3CCC(F)(F)CC3)c2c1 (single isomer, unassigned) [Example 78, 1-{5-[(4,4-Difluorocyclohexyl)(phenyl)methyl]-3-(dimethyl-1H-1,2,3-triazol-5-yl)-5H-pyrido[3,2-b]indol-7-yl}-4-(trifluoromethyl)piperidine] | < 5 | –
Cc1nnn(C)c1-c1cnc2c3c(N4CCCS4(=O)=O)ccc(S(C)(=O)=O)c3n([C@H](c3ccccc3)C3CCOCC3)c2c1 [Example 19, 2-[3-(Dimethyl-1H-1,2,3-triazol-5-yl)-6-methanesulfonyl-5-[(S)-oxan-4-yl(phenyl)methyl]-5H-pyrido[3,2-b]indol-9-yl]-1λ^6,2-thiazolidine-1,1-dione] | < 1 | –
[2H]C([2H])([2H])c1nnn(C)c1-c1cnc2c3ccc(N4CCC(S(C)(=O)=O)CC4)cc3n(C(c3ncccc3F)C3CCOCC3)c2c1 (stereo not drawn) [Example 70, 3-Fluoro-2-{[7-(4-methanesulfonylpiperidin-1-yl)-3-[4-(^2H3)methyl-1-methyl-1H-1,2,3-triazol-5-yl]-5H-pyrido[3,2-b]indol-5-yl](oxan-4-yl)methyl}pyridine] | < 1 | –
Cc1nnn(C)c1-c1cnc2c3ccc(N4CCCOC4=O)cc3n([C@H](c3ccccc3)C3CCOCC3)c2c1 [Example 12, 3-[3-(Dimethyl-1H-1,2,3-triazol-5-yl)-5-[(S)-oxan-4-yl(phenyl)methyl]-5H-pyrido[3,2-b]indol-7-yl]-1,3-oxazinan-2-one] | < 5 | –
[2H]C([2H])([2H])c1nnn(C)c1-c1cnc2c3c(N4CCCS4(=O)=O)ccc(S(C)(=O)=O)c3n([C@]([2H])(c3ccccc3)C3CCOCC3)c2c1 [Example 38, 2-{6-Methanesulfonyl-3-[4-(^2H3)methyl-1-methyl-1H-1,2,3-triazol-5-yl]-5-[(S)-oxan-4-yl(phenyl)(^2H)methyl]-5H-pyrido[3,2-b]indol-9-yl}-1λ^6,2-thiazolidine-1,1-dione] | < 5 | –
Cc1noc(C)c1-c1cnc2c3cc(C4CCN(C(=O)CO)CC4)ccc3n([C@H](c3ccccc3)C3CCOCC3)c2c1 [Example 6, 1-{4-[3-(Dimethyl-1,2-oxazol-4-yl)-5-[(S)-oxan-4-yl(phenyl)methyl]-5H-pyrido[3,2-b]indol-8-yl]piperidin-1-yl}-2-hydroxyethan-1-one] | < 5 | –
Cc1nnn(C)c1-c1cnc2c3ccc(N4CCN(C(=O)N(C)C)CC4)cc3n([C@H](c3ccccc3)C3CCOCC3)c2c1 [Example 49, 4-[3-(Dimethyl-1H-1,2,3-triazol-5-yl)-5-[(S)-oxan-4-yl(phenyl)methyl]-5H-pyrido[3,2-b]indol-7-yl]-N,N-dimethylpiperazine-1-carboxamide] | < 5 | –
Cc1nnn(C)c1-c1cnc2c3ccc(N4CCC(C(F)(F)F)CC4)cc3n([C@H](c3ccccc3)C3CCOCC3)c2c1 [Example 72, 1-[3-(Dimethyl-1H-1,2,3-triazol-5-yl)-5-[(S)-oxan-4-yl(phenyl)methyl]-5H-pyrido[3,2-b]indol-7-yl]-4-(trifluoromethyl)piperidine] | < 1 | –
Cc1nnn(C)c1-c1cnc2c3ccc(C4(C)CNC(=O)O4)cc3n([C@H](c3ccccc3)C3CCOCC3)c2c1 (single isomer, unassigned) [Example 10] | < 5 | –
[2H]C([2H])([2H])c1nnn(C)c1-c1cnc2c3ccc(C4(C)COC(=O)N4)c(F)c3n([C@H](c3ccccc3)C3CCOCC3)c2c1 (stereo partly drawn) [Example 55, 4-{6-Fluoro-3-[4-(^2H3)methyl-1-methyl-1H-1,2,3-triazol-5-yl]-5-[(S)-oxan-4-yl(phenyl)methyl]-5H-pyrido[3,2-b]indol-7-yl}-4-methyl-1,3-oxazolidin-2-one] | < 1 | –
[2H]C([2H])([2H])c1nnn(C)c1-c1ccc2c3ncc(-c4c(C)nnn4C)cc3n([C@H](c3ccccc3)C3CCOCC3)c2c1 [Example 18, 5-[3-(Dimethyl-1H-1,2,3-triazol-5-yl)-5-[(S)-oxan-4-yl(phenyl)methyl]-5H-pyrido[3,2-b]indol-7-yl]-4-(^2H3)methyl-1-methyl-1H-1,2,3-triazole] | < 1 | –
[2H]C([2H])([2H])Oc1nnn(C)c1-c1ccc2c3ncc(-c4c(OC([2H])([2H])[2H])nnn4C)cc3n([C@H](c3ccccc3)C3CCOCC3)c2c1 [Example 29, 4-(^2H3)Methoxy-5-{7-[4-(^2H)methoxy-1-methyl-1H-1,2,3-triazol-5-yl]-5-[(S)-oxan-4-yl-(phenyl)methyl]-5H-pyrido[3,2-b]indol-3-yl}-1-methyl-1H-1,2,3-triazole] | < 5 | –
[2H]C([2H])([2H])c1nnn(C)c1-c1cnc2c3c(N4CCCS4(=O)=O)ccc(S(C)(=O)=O)c3n([C@H](c3ccccc3)C3CCOCC3)c2c1 [Example 26, 2-{6-Methanesulfonyl-3-[4-(^2H3)methyl-1-methyl-1H-1,2,3-triazol-5-yl]-5-[(S)-oxan-4-yl(phenyl)methyl]-5H-pyrido[3,2-b]indol-9-yl}-1λ^6,2-thiazolidine-1,1-dione] | < 1500 | –
Cc1nnn(C)c1-c1cnc2c3ccc(N4CCN(S(=O)(=O)N(C)C)CC4)cc3n([C@H](c3ccccc3)C3CCOCC3)c2c1 [Example 50, 4-[3-(Dimethyl-1H-1,2,3-triazol-5-yl)-5-[(S)-oxan-4-yl(phenyl)methyl]-5H-pyrido[3,2-b]indol-7-yl]-N,N-dimethylpiperazine-1-sulfonamide] | < 5 | –
Cc1nnn(C)c1-c1cnc2c3ccc(C4(C)CNC(=O)O4)cc3n([C@H](c3ccccc3)C3CCOCC3)c2c1 (single isomer, unassigned) [Example 9] | < 5 | –
[2H]C([2H])([2H])c1nnn(C)c1-c1cnc2c3ccc(C4(O)CCOC4)c(F)c3n([C@H](c3ccccc3)C3CCOCC3)c2c1 (stereo partly drawn) [Example 63, 3-{6-Fluoro-3-[4-(^2H3)methyl-1-methyl-1H-1,2,3-triazol-5-yl]-5-[(S)-oxan-4-yl(phenyl)methyl]-5H-pyrido[3,2-b]indol-7-yl}oxolan-3-ol] | < 1 | –
[2H]C([2H])([2H])c1nnn(C)c1-c1cnc2c3ccc(N4CCC(F)(F)CC4)cc3n(C(c3ncccc3F)C3CCOCC3)c2c1 (stereo not drawn) [Example 65, 2-{[7-(4,4-Difluoropiperidin-1-yl)-3-[4-(^2H3)methyl-1-methyl-1H-1,2,3-triazol-5-yl]-5H-pyrido[3,2-b]indol-5-yl](oxan-4-yl)methyl}-3-fluoropyridine] | < 1 | –
[2H]C([2H])([2H])c1nnn(C)c1-c1cnc2c3ccc(N4CCCS4(=O)=O)c(F)c3n([C@H](c3ccccc3)C3CCOCC3)c2c1 [Example 58, 2-{6-Fluoro-3-[4-(^2H3)methyl-1-methyl-1H-1,2,3-triazol-5-yl]-5-[(S)-oxan-4-yl(phenyl)methyl]-5H-pyrido[3,2-b]indol-7-yl}-1λ^6,2-thiazolidine-1,1-dione] | < 1 | –
Cc1nnn(C)c1-c1cnc2c3cc(C4CCNCC4)ccc3n([C@H](c3ccccc3)C3CCOCC3)c2c1 [Example 4, 4-[3-(Dimethyl-1H-1,2,3-triazol-5-yl)-5-[(S)-oxan-4-yl(phenyl)methyl]-5H-pyrido[3,2-b]indol-8-yl]piperidine] | < 1 | –
Cc1nnn(C)c1-c1cnc2c3ccc(N4CCS(=O)(=O)CC4)cc3n([C@H](c3ccccc3)C3CCOCC3)c2c1 [Example 44, 4-[3-(Dimethyl-1H-1,2,3-triazol-5-yl)-5-[(S)-oxan-4-yl(phenyl)methyl]-5H-pyrido[3,2-b]-indol-7-yl]-1λ^6-thiomorpholine-1,1-dione] | < 1 | –
[2H]C([2H])([2H])c1nnn(C)c1-c1cnc2c3c(N4CCC(F)(F)CC4)ccc(S(C)(=O)=O)c3n(C(c3ccccc3)C3CCC(F)(F)CC3)c2c1 (stereo not drawn) [Example 74, 1-{5-[(4,4-Difluorocyclohexyl)(phenyl)methyl]-6-methanesulfonyl-3-[4-(^2H3)methyl-1-methyl-1H-1,2,3-triazol-5-yl]-5H-pyrido[3,2-b]indol-9-yl}-4,4-difluoropiperidine] | < 1500 | –
[2H]C([2H])([2H])c1nnn(C)c1-c1cnc2c3ccc(N4CCOC4=O)c(F)c3n([C@H](c3ccccc3)C3CCOCC3)c2c1 [Example 60, 3-{6-Fluoro-3-[4-(^2H3)methyl-1-methyl-1H-1,2,3-triazol-5-yl]-5-[(S)-oxan-4-yl(phenyl)methyl]-5H-pyrido[3,2-b]indol-7-yl}-1,3-oxazolidin-2-one] | < 1 | –
